Experimental data from patent publication US10265383B2, “Treatment of radiation injury using ghrelin” (priority 2014, dated 2019).
Where no end group is shown, it is not given here. The star is where a group is joined. Octanoyl = CCCCCCCC(=O)*

Assays:
Assay type in all cases: in vivo, rat
[1] = system: intestinal crypt apoptosis; assay: Intestinal TUNEL staining after WBI; details: jejunum, Day 7 after 10 Gy WBI; vehicle increased by 638% from sham
Procedure: (§1) Animal model of whole body irradiation. Rats were exposed to whole body irradiation (WBI) of 10 Gray (Gy) using a Gammacell® 1000 Irradiator (Atomic Energy of Canada Ltd) [radiation source: Cesium-137 (^137Cs)] delivered at a dose rate of about 2.5 GY/min. The animals were sedated with intra-peritoneal pentobarbital (40 mg/kg BW) prior to irradiation. During radiation, the container rotated continuously in front of the radiation source for even exposure. The animals were then returned to their cages, and food and water were provided.
(§2) Blood and Tissue Collection after WBI. Rats exposed to 10 Gy WBI were treated with 20 nmol/rat human ghrelin once a day for 6 days starting at 24 h after radiation. At the 7th day, rats were euthanized, and blood, liver and the small intestine were removed under sterile conditions. The blood was allowed to clot and following centrifugation, the serum was transferred into pyrogenic free sterile tubes, and stored at −80° C. until further analysis. […]
TUNEL staining. The presence of apoptotic cells in the gut sections was assessed at the 7th day following WBI using a terminal deoxynucleotide transferase dUTP nick-end labeling (TUNEL) staining kit (Roche Diagnostics, Indianapolis, Ind.). […] TUNEL-positive cells in crypt were counted in 10 fields/section under a fluorescence microscope (200×), and the number of cells/crypt are shown.

[2] = system: CD73; assay: Jejunal CD73 mRNA expression by real time PCR; details: jejunum, Day 7 after 10 Gy WBI; vehicle decreased by 62%
Procedure: as §1
(§3) Blood and Tissue Collection after WBI. Rats exposed to 10 Gy WBI were treated with 20 nmol/rat human ghrelin once a day for 6 days starting at 24 h after radiation. At the 7th day, rats were euthanized, and blood, liver and the small intestine were removed under sterile conditions. The blood was allowed to clot and following centrifugation, the serum was transferred into pyrogenic free sterile tubes, and stored at −80° C. until further analysis. Liver (0.25 g) was snap-frozen in liquid nitrogen and stored at −80° C. for subsequent bacterial translocation analysis. Small intestine, 10-15 cm of the ileum, was harvested for gut permeability studies, 10 cm of jejunum was collected for histopathology, and the remaining 10 cm jejunal segment each was collected for RNA and protein analyses.
(§4) Total RNA extraction and real time PCR. […]

[3] = system: Bax; assay: Western blot of jejunal Bax protein; details: jejunum, Day 7 after 10 Gy WBI; slightly elevated in vehicle
Procedure: as §1
Blood and Tissue Collection after WBI. Rats exposed to 10 Gy WBI were treated with 20 nmol/rat human ghrelin once a day for 6 days starting at 24 h after radiation. At the 7th day, rats were euthanized, and blood, liver and the small intestine were removed under sterile conditions. […]
Western blot analysis. […] After overnight incubation with the primary antibodies at 4° C., the membranes were washed with TBS-T Immunoreactive bands were detected using HRP-linked secondary antibody (Southern Biotech, Birmingham, Ala.) and the Enhanced Chemiluminescence (ECL) Western blot detection kit (Amersham, Piscataway, N.J.). The immunoblots were exposed to X-ray film and analyzed with the NIH Image J analysis system. […]

[4] = system: serum albumin; assay: Serum albumin level after WBI; details: Day 7 after 10 Gy WBI; WBI decreased it by 19%
Procedure: as §1
as §2, with “analysis. Liver (0.25 g) was snap-frozen in liquid nitrogen and stored at −80° C. for subsequent bacterial translocation analysis.” for “analysis.”
(§5) Serum glucose and albumin levels. Serum levels of glucose and albumin were determined using Liquid Glucose Hexokinase Reagent Set and Albumin Reagent Set (Pointe Scientific, Inc.) respectively according to manufacturer's instructions.

[5] = system: ICAM-1; assay: Jejunal ICAM-1 mRNA expression by real time PCR; details: jejunum, Day 7 after 10 Gy WBI; vehicle increased by 69%
Procedure: as §1, §3, §4

[6] = system: serum glucose; assay: Serum glucose level after WBI; details: Day 7 after 10 Gy WBI; WBI reduced it by 30%
Procedure: as §1
as §2, with “analysis. Liver (0.25 g) was snap-frozen in liquid nitrogen and stored at −80° C. for subsequent bacterial translocation analysis.” for “analysis.”
as §5

With “ghrelin (GSS(Octanoyl)FLSPEHQRVQQRKESKKPPAKLQPR; listed as Homo sapiens) [human ghrelin]” the “apoptotic (TUNEL positive) cells/crypt, reduction” value [1] was 62%, the “CD73 mRNA expression, restored by” value [2] was 70% and the Bax protein [3] was “remain same as sham”. The serum albumin levels [4] was “restored to sham values”, the “ICAM-1 mRNA expression, inhibition from the vehicle levels” value [5] was 51% and the serum glucose [6] was “restored to near Sham levels”.
